Experimental data published in patent US20260026495A1, “STABLE PLASMIN COMPOSITIONS FOR ORGAN PRESERVATION AND RECONDITIONING” (Grifols Worldwide Operations Limited, priority 2022, published 2026).

Key:
plasmin = assay: Plasmin proteolytic activity in presence of TXA, S-2403 chromogenic substrate; assay type: biochemical, human; conditions: plasmin 1 mg/mL; TXA 0.001 mM to 100 mM; FIG. 3
Source text: S-2403 is a commercially available, plasmin specific chromogenic substrate.

[1] = Plasmin activity after storage, S-2403 chromogenic substrate; assay type: biochemical; conditions: plasmin 1 mg/mL stored at 0° C. over a 24-hour period; FIG. 4A
Description: To assess the compatibility of plasmin as an additive in Cold Storage Solutions, the activity of plasmin at a concentration of 1 mg/mL was assessed at multiple time points whilst stored at 0° C.
(white bars), 25° C. (black bars), or 37° C. (striped bars) for a 24 hour period. The commercial S-2403 plasmin specific chromogenic substrate was used to assess activity at each of the indicated times.
Significant plasmin activity is maintained when formulated with these excipients and diluted into organ preservation and reconditioning solutions. The commercial […] plasmin specific chromogenic substrate was used to assess activity at each of the indicated times.

Row | Molecule | proteolytic activity of plasmin (kinetics) (plasmin) | plasmin activity (kinetics) during storage [1]
1 | NC[C@H]1CC[C@H](C(=O)O)CC1 [TXA, tranexamic acid] | unaltered kinetics | –
2 | plasmin | – | unaltered kinetics
